# Results: US11998632B2, “Oral cannabinoid compositions and methods for treating neuropathic pain” (Avicanna Inc., priority 2019, dated 2024)
# Assay: Assessment of stability: cannabinoid concentrations by HPLC on stored capsules
# Details: 40-day incubation at 40° C., dark conditions
row,SMILES,stability of cannabinoid in the formulations (HPLC)
1,"C=C(C)[C@@H]1CCC(C)=C[C@H]1c1c(O)cc(CCCCC)cc1O [CBD, cannabidiol]",remains stable
2,"CCCCCc1cc(O)c2c(c1)OC(C)(C)[C@@H]1CCC(C)=C[C@@H]21 [THC, Tetrahydrocannabinol]",degrades significantly
